Data from US10646572B2, “Pharmaceutical compositions with enhanced stability” (Foresee Pharmaceuticals Co., Ltd., priority 2006, dated 2020).
Structures can show the parent of a compound that is named as a salt. Where two headings read alike, the source gives them in different places.

How the values were obtained:
[1] = Effect of Vitamin E TPGS on in vitro release of leuprolide (Example 11); assay type: physicochemical; settings: LAHCl 15% in PLA 100DLPL/NMP, PBS pH 7.4, 37° C., FIG. 4
Procedure: The polymer vehicle solutions with and without excipients were prepared as following: PLA 100DLPL (0.26 IV, Lakeshore, Ala.) with a lauryl ester end group and Vitamin E TPGS were dissolved in NMP at suitable amount according to the Table 7. Then suitable amount of leuprolide hydrochloride (LAHCl) was mixed with the polymer solutions at 15% by weight. The formulations were thoroughly mixed to obtain uniform formulations.
(§1) An aliquot of the formulation suspension (about 100 mg) was injected into in 3 mL phosphate buffer saline solution at pH 7.4 with 0.1% sodium azide at 37° C. The receiving fluid was replaced at selected time points with fresh buffer solution, and the removed buffer solution diluted 10-fold with PBS at pH 7.4 was analyzed for drug concentration by HPLC. The amount released at each time point was calculated.

in vivo = assay: in vivo; parameters: species or system rats; settings: rat, sc
Procedure: Each formulation was then injected into the rats subcutaneously at a volume of about 100 μL with 6 animals per group. The serum samples were collected from each animal at 3 hour, 1, 3, 7, 14, 28, 42, 56, and 70 days post injection. The serum samples were analyzed for leuprolide concentration by ELISA using the kits available from Peninsula Laboratories Inc. The leuprolide remaining in the implants at various times was analyzed by HPLC.

[2] = assay type: physicochemical
Source text: (§2) The injectable compositions were filled into 1.2 mlL polypropylene syringes with luer-lock tips. […] The injectable composition was sampled at pre-defined time points.

[3] = NMP
Procedure: Poly(DL-lactide-co-glycolide) (PLGA) of an 85/15 ratio of lactide to glycolide (DLPLG85/15, IV: 0.28) with a lauryl ester end group was dissolved in N- methyl-2-pyrrolidone (NMP) to give a 50% solution by weight. The leuprolide salts were mixed with the PLGA solution in NMP to give a uniform injectable composition at ratios shown in the Table 1. The injectable compositions were filled into 1.2 mL polypropylene syringes with luer-lock tips. Then the pre-filled syringes were sealed using luer-lock caps. The capped syringes were packaged in a container and sealed in a plastic bag under vacuum and then stored at 4° C. and room temperature (˜22° C.) for up to 18 months. The injectable composition was sampled at 24 h, 1, 2, 3, 6, 12, and 18 month time points. […] Molecular weight of the polymer was determined by gel permeation chromatography (GPC) using polystyrene standards with known molecular weights.

[4] = Molecular weight of PLGA in PLGA/DMSO injectable compositions (GPC); assay type: physicochemical; settings: DMSO, 4° C., after 16 months
Source text: as §2

[5] = In vitro release of leuprolide from injectable polymeric formulations (Example 10); assay type: physicochemical; settings: 6% by weight in PLGA/NMP, PBS pH 7.4, 37° C., FIG. 3
Procedure: Three polymer vehicle solutions were prepared as following: PLG 85/15 (0.28 IV) with a lauryl ester end group was dissolved in NMP at 50% and 55% by weight, and RG503 (0.42 IV) with a carboxylic acid end group was dissolved in NMP at 50% by weight. Then suitable amount of leuprolide hydrochloride (LAHCl) and leuprolide mesylate (LAMS) were mixed with the polymer solutions at 6% by weight each. The formulations were thoroughly mixed to obtain uniform formulations.
as §1, with “2-fold” for “10-fold”, “phosphate buffer” for “PBS”

[6] = cited from earlier work

Compound: Vitamin E TPGS
- effect on initial burst [1]: did not affect the initial burst
- effect on release rate of leuprolide at later stages [1]: seemed to reduce the release rate of leuprolide at later stages

Compound: CCNC(=O)[C@@H]1CCCN1C(=O)[C@H](CCCNC(=N)N)NC(=O)[C@H](CC(C)C)NC(=O)[C@@H](CC(C)C)NC(=O)[C@H](Cc1ccc(O)cc1)NC(=O)[C@H](CO)NC(=O)[C@H](Cc1c[nH]c2ccccc12)NC(=O)[C@H](Cc1c[nH]cn1)NC(=O)[C@@H]1CCC(=O)N1 [leuprolide mesylate, Leuprolide Mesylate]
- Cmax (serum leuprolide) (in vivo): 370.6 ng/mL
- time at which Cmax was reached (in vivo): 3 h
- leuprolide degraded [2]: less than 5%

Compound: CCNC(=O)[C@@H]1CCCN1C(=O)[C@H](CCCNC(=N)N)NC(=O)[C@H](CC(C)C)NC(=O)[C@@H](CC(C)C)NC(=O)[C@H](Cc1ccc(O)cc1)NC(=O)[C@H](CO)NC(=O)[C@H](Cc1c[nH]c2ccccc12)NC(=O)[C@H](Cc1c[nH]cn1)NC(=O)[C@@H]1CCC(=O)N1 [leuprolide acetate, Leuprolide acetate, reference compound]
- leuprolide degraded [2]: Up to 20%
- decrease of molecular weight of PLGA comparing to blank control ([3]; 4° C., after 6 months): more than 10%
- decrease of molecular weight of PLGA comparing to blank control [4]: about 40%

Compound: CCNC(=O)[C@@H]1CCCN1C(=O)[C@H](CCCNC(=N)N)NC(=O)[C@H](CC(C)C)NC(=O)[C@@H](CC(C)C)NC(=O)[C@H](Cc1ccc(O)cc1)NC(=O)[C@H](CO)NC(=O)[C@H](Cc1c[nH]c2ccccc12)NC(=O)[C@H](Cc1c[nH]cn1)NC(=O)[C@@H]1CCC(=O)N1 [leuprolide hydrochloride, Leuprolide Hydrochloride]
- time at which Cmax was reached (in vivo): 3 h
- Cmax (in vivo; Cmax (serum leuprolide)): 662 ng/mL
- leuprolide degraded [2]: less than 5%
- molecular weight of PLGA versus blank control ([3]; both 4° C. and RT, after 12 months): the same as that of the blank control
- leuprolide release, LAHCl versus LAMS [5]: no significant difference
- molecular weight of PLGA versus control [4]: comparable to that of the control

Compound: C[C@@H](O)[C@@H]1NC(=O)[C@H](CCCCN)NC(=O)[C@@H](Cc2c[nH]c3ccccc23)NC(=O)[C@H](Cc2ccccc2)NC(=O)[C@@H](NC(=O)[C@H](N)Cc2ccccc2)CSSC[C@@H](C(=O)N[C@H](CO)[C@@H](C)O)NC1=O [octreotide acetate]
- octreotide acylated ([6]; combined with polylactide-co-glicolide solution in NMP, within 5 hours): more than 40%
- molecular weight of the polymer ([6]; polylactide-co-glicolide solution in NMP, within the same time period (5 hours)): decreased significantly
